One data set in a line: Water solubility. It is filed as physicochemical.
Data set [1] is described as follows: Crushing strength of compressed pure deramciclane-fumarate powder. The data set is classed as physicochemical. Conditions: 300 mg powder, die cavity of 10 mm diameter, eccentric press, compression force 5-40 kN. An excerpt:
Due to the weak cohesion characteristics of deramciclane-fumarate on compression of the particles of the active ingredient acceptable tablet strength can not be obtained.

The source of these data is US20060258745A1, “Deramciclane-fumarate tablets” (EGIS GYOGYSZERGYAR RT., priority 2003, published 2006).

Each structure is given as a SMILES string.

Consider `CN(C)CCOC1(c2ccccc2)CC2CCC1(C)C2(C)C.O=C(O)/C=C/C(=O)O` [deramciclane-fumarate, (1R,2S,4R)-(−)-2-dimethylaminoethoxy-2-phenyl-1,7,7-trimethyl-bicyclo[2.2.1]heptane-2-(E)-butenedioate (1:1)], for which, in the data set “Water solubility”, the water solubility result is on record as “low water solubility”. Also, in data set [1], the “crushing strength of the tablets” value is recorded as not above 10 N.
